Patent US11401254B2, “Substituted thiophenecarboxamides and analogues as antibacterials agents” (Bayer Aktiengesellschaft, priority 2018, dated 2022)

System: Xanthomonas campestris pv. campestris
Assay: Xanthomonas campestris pv. campestris in vitro cell test (bacteria growth in liquid culture)
Assay type: cell-based
Details: 20 ppm of tested compound; 24 h of incubation
Experimental: Example A: Xanthomonas Campestris pv. Campestris In Vitro Cell Test
Culture medium: LB broth medium (Luria Broth Miller) Sigma
Inoculum: bacteria suspension
Compounds to be tested were solubilized in DMSO and the solution used to prepare the required range of concentrations. The final concentration of DMSO used in the assay was ≤1%.
Inoculum was prepared from a pre-culture of bacteria grown in liquid medium and diluted to the desired optical density (OD).
Compounds were evaluated for their ability to inhibit bacteria growth in liquid culture assay. The compounds were added in the desired concentrations to culture medium containing the bacteria suspension. After 24 h of incubation, the efficacy of compounds was determined by spectrometric measurement of bacteria growth. Inhibition was determined by comparing the absorbance values in wells containing the compounds with the absorbance in control wells without compounds.

SMILES	direct activity (inhibition of bacteria growth)
Cc1c(C(=O)NC2(C(=O)O)CC2)sc(Br)c1Br [I.06]	no direct activity
COC(=O)CNC(=O)c1sc(Br)c(Br)c1C [I.09]	no direct activity
CC/C=C\CCOC(=O)C(NC(=O)c1sc(Br)c(Br)c1C)C(C)C (stereo not drawn) [I.12]	no direct activity
CC[C@H](C)[C@H](NC(=O)c1sc(Br)c(Br)c1C)C(=O)OC [I.22]	no direct activity
CCOC(=O)[C@@H](NC(=O)c1sc(Cl)c(Cl)c1C)C(C)C [I.25]	no direct activity
CC[C@H](C)[C@H](NC(=O)c1sc(Cl)c(Cl)c1C)C(=O)OC [I.32]	no direct activity
CCOC(=O)C(NC(=O)c1sc(Cl)c(Cl)c1C)C(C)C (stereo not drawn) [I.40]	no direct activity
CCOC(=O)C(NC(=O)c1sc(Cl)c(Cl)c1C)C(C)C (stereo not drawn) [I.44]	no direct activity
COC(=O)C1(NC(=O)c2sc(Cl)c(Cl)c2C)CC1 [I.50]	no direct activity
Cc1c(C(=O)NC(C(=O)OCC2CC2)C(C)C)sc(Br)c1Br (stereo not drawn) [I.52]	no direct activity

System: not listed separately
Assay: Log P by HPLC on reversed phase columns (EEC directive 79/831 Annex V.A8)
Assay type: physicochemical
Details: method [a]: LC-UV, acidic range, 0.1% formic acid in water and acetonitrile as eluent
Experimental: In the above tables, measurement of Log P values was performed according to EEC directive 79/831 Annex V.A8 by HPLC (High Performance Liquid Chromatography) on reversed phase columns with the following methods: • ^[a]
If more than one Log P value is available within the same method, all the values are given and separated by “+”.
Calibration was done with straight-chain alkan2-ones (with 3 to 16 carbon atoms) with known Log P values (measurement of Log P values using retention times with linear interpolation between successive alkanones). Lambda-max-values were determined using UV-spectra from 200 nm to 400 nm and the peak values of the chromatographic signals.

LogP	SMILES
3.58^[a]	Cc1c(C(=O)NC(C(=O)OC2COC2)C(C)C)sc(Br)c1Br (stereo not drawn) [I.16]
4.37^[a]	CCOC(=O)C(NC(=O)c1sc(Br)c(Br)c1C)C(C)C (stereo not drawn) [I.62]
3.91^[a]	COC(=O)C(NC(=O)c1sc(Br)c(Br)c1C)C(C)C (stereo not drawn) [I.63]
4.59^[a]	CCOC(=O)C(Cc1ccccc1)NC(=O)c1sc(Br)c(Br)c1C (stereo not drawn) [I.65]
4.66^[a]	CCOC(=O)C(CC(C)C)NC(=O)c1sc(Br)c(Br)c1C (stereo not drawn) [I.68]
4.66^[a]	CCOC(=O)C(CC(C)C)NC(=O)c1sc(Br)c(Br)c1C (stereo not drawn) [I.69]
3.69^[a]	COC(=O)C(CCSC)NC(=O)c1sc(Br)c(Br)c1C (stereo not drawn) [I.70]
4.37^[a]	CCOC(=O)C(NC(=O)c1sc(Cl)c(Cl)c1C)c1ccccc1 (stereo not drawn) [I.75]
4.44^[a]	CCOC(=O)C(NC(=O)c1sc(Br)c(Br)c1C)c1ccccc1 (stereo not drawn) [I.76]
3.40^[a]	Cc1c(C(=O)NCC(=O)OC(C)C)sc(Br)c1Br [I.78]
2.05^[a]	Cc1c(C(=O)NCC(=O)O)sc(Cl)c1Cl [I.80]
2.28^[a]	Cc1c(C(=O)NC(C)C(=O)O)sc(Cl)c1Cl (stereo not drawn) [I.81]
2.96^[a]	Cc1c(C(=O)NC(C(=O)O)C(C)C)sc(Cl)c1Cl (stereo not drawn) [I.82]
3.31^[a]	CC[C@H](C)[C@H](NC(=O)c1sc(Cl)c(Cl)c1C)C(=O)O [I.83]
3.31^[a]	Cc1c(C(=O)NC(CC(C)C)C(=O)O)sc(Cl)c1Cl (stereo not drawn) [I.84]
2.80^[a]	CSCCC(NC(=O)c1sc(Cl)c(Cl)c1C)C(=O)O (stereo not drawn) [I.85]
3.31^[a]	Cc1c(C(=O)NC(Cc2ccccc2)C(=O)O)sc(Cl)c1Cl (stereo not drawn) [I.86]
2.89^[a]	CSCCC(NC(=O)c1sc(Br)c(Br)c1C)C(=O)O (stereo not drawn) [I.87]
3.30^[a]	Cc1c(C(=O)NC(Cc2ccccc2)C(=O)O)sc(Br)c1Br (stereo not drawn) [I.88]
3.37^[a]	CC[C@H](C)[C@H](NC(=O)c1sc(Br)c(Br)c1C)C(=O)O [I.89]
4.34^[a]	COC(=O)C(NC(=O)c1sc(Cl)c(Cl)c1C)C(C)C (stereo not drawn) [I.91]

LogP	SMILES
2.39^[a]	CCOC(=O)CNC(=O)c1sc(Br)cc1C [IXa.02]
3.65^[a]	CCOC(=O)C(NC(=O)c1sc(Br)cc1C)C(C)C (stereo not drawn) [IXa.03]
3.90^[a]	CCOC(=O)C(Cc1ccccc1)NC(=O)c1sc(Br)cc1C (stereo not drawn) [IXa.04]
2.49^[a]	CCOC(=O)C1(NC(=O)c2scc(Br)c2C)CC1 [IXb.01]
2.90^[a]	COC(=O)CNC(=O)c1sc(Cl)c(Cl)c1I [VIa.02]
2.96^[a]	COC(=O)CNC(=O)c1sc(Br)c(Br)c1I [VIa.03]
3.39^[a]	CCOC(=O)C1(NC(=O)c2sc(Cl)c(Cl)c2I)CC1 [VIa.05]
3.35^[a]	CCOC(=O)CNC(=O)c1sc(Br)c(Br)c1I [VIa.10]
3.31^[a]	CCOC(=O)CNC(=O)c1sc(Cl)c(Cl)c1I [VIa.12]
2.21^[a]	O=C(O)CNC(=O)c1sc(Cl)c(Cl)c1I [VIa.13]
4.93^[a]	CCOC(=O)C(Cc1ccccc1)NC(=O)c1sc(Br)c(Br)c1I (stereo not drawn) [VIa.14]
5.01^[a]	CCOC(=O)C(CC(C)C)NC(=O)c1sc(Br)c(Br)c1I (stereo not drawn) [VIa.15]
4.37^[a]	CCOC(=O)C(CCSC)NC(=O)c1sc(Br)c(Br)c1I (stereo not drawn) [VIa.16]
4.88^[a]	CCOC(=O)C(NC(=O)c1sc(Cl)c(Cl)c1Br)C(C)C (stereo not drawn) [VIa.17]
5.17^[a]	CCOC(=O)C(CC(C)C)NC(=O)c1sc(Cl)c(Cl)c1Br (stereo not drawn) [VIa.18]
4.46^[a]	CCOC(=O)C(CCSC)NC(=O)c1sc(Cl)c(Cl)c1Br (stereo not drawn) [VIa.19]
5.01^[a]	CCOC(=O)C(Cc1ccccc1)NC(=O)c1sc(Cl)c(Cl)c1Br (stereo not drawn) [VIa.20]
4.85^[a]	CCOC(=O)C(NC(=O)c1sc(Cl)c(Cl)c1I)C(C)C (stereo not drawn) [VIa.21]
5.08^[a]	CCOC(=O)C(CC(C)C)NC(=O)c1sc(Cl)c(Cl)c1I (stereo not drawn) [VIa.22]
4.40^[a]	CCOC(=O)C(CCSC)NC(=O)c1sc(Cl)c(Cl)c1I (stereo not drawn) [VIa.23]
5.00^[a]	CCOC(=O)C(Cc1ccccc1)NC(=O)c1sc(Cl)c(Cl)c1I (stereo not drawn) [VIa.24]

SMILES	LogP
CCOC(=O)c1sc(NC(=O)OC(C)(C)C)c(Br)c1C [XIIIa.01]	4.62^[a]

Same assay, conditions: reversed phase HPLC columns, method [a]: LC-UV, acidic range, 0.1% formic acid in water and acetonitrile as eluent

chromatographic logP	SMILES
2.57	CCOC(=O)C1(NC(=O)c2scc(Br)c2C)CC1 [IXa.01, ethyl 1-{[(4-bromo-3-methyl-2-thienyl)carbonyl]amino}cyclopropanecarboxylate]
4.11	COC(=O)c1sc(Cl)c(Cl)c1Br [VIIIa.02, methyl 3-bromo-4,5-dichlorothiophene-2-carboxylate]
2.52	O=C(O)c1sc(Cl)c(Cl)c1Br [VIIIa.03, 3-bromo-4,5-dichlorothiophene-2-carboxylic acid]
3.33	CCOC(=O)CNC(=O)c1sc(Cl)c(Cl)c1Br [VIa.01, ethyl N-[(3-bromo-4,5-dichloro-2-thienyl)carbonyl]glycinate]
1.97	CCOC(=O)C1(NC(=O)c2sc(N)c(Br)c2C)CC1 [Xa.01, ethyl 1-{[(5-amino-4-bromo-3-methyl-2-thienyl)carbonyl]amino}cyclopropanecarboxylate]

SMILES	chromatographic logP
Cc1c(C(=O)O)sc(NC(=O)OC(C)(C)C)c1Br [XIIIa.02, 4-bromo-5-[(tert-butoxycarbonyl)amino]-3-methylthiophene-2-carboxylic acid]	2.86

Same assay, conditions: reversed phase HPLC columns, method [b]: LC-UV, neutral range, 0.001 molar ammonium acetate solution in water and acetonitrile as eluent

SMILES	chromatographic logP
CCOC(=O)C1(NC(=O)c2sc(NC(=O)OC(C)(C)C)c(Br)c2C)CC1 [XIa.01, ethyl 1-[({4-bromo-5-[(tert-butoxycarbonyl)amino]-3-methyl-2-thienyl}carbonyl)amino]cyclopropanecarboxylate]	3.44

Same assay, conditions: reversed phase HPLC columns, value given in preparation example; method variant not stated

chromatographic logP	SMILES
3.99	COC(=O)c1sc(Cl)c(Cl)c1Br [VIIIa.02, methyl 3-bromo-4,5-dichlorothiophene-2-carboxylate]
2.51	O=C(O)c1sc(Cl)c(Cl)c1Br [VIIIa.03, 3-bromo-4,5-dichlorothiophene-2-carboxylic acid]
3.33	CCOC(=O)CNC(=O)c1sc(Cl)c(Cl)c1Br [VIa.01, ethyl N-[(3-bromo-4,5-dichloro-2-thienyl)carbonyl]glycinate]
1.92	CCOC(=O)C1(NC(=O)c2sc(N)c(Br)c2C)CC1 [Xa.01, ethyl 1-{[(5-amino-4-bromo-3-methyl-2-thienyl)carbonyl]amino}cyclopropanecarboxylate]
3.11	COC(=O)c1sc(Cl)c(Cl)c1N [methyl 3-amino-4,5-dichlorothiophene-2-carboxylate]

SMILES	chromatographic logP
CCOC(=O)C1(NC(=O)c2sc(NC(=O)OC(C)(C)C)c(Br)c2C)CC1 [XIa.01, ethyl 1-[({4-bromo-5-[(tert-butoxycarbonyl)amino]-3-methyl-2-thienyl}carbonyl)amino]cyclopropanecarboxylate]	3.28
